Data reported in the CheMixHub viscosity set.
Where “and” joins values, the source holds several entries; their conditions need not be identical. Equal values may be shown once.

Assay: xn = mol fraction of the nth substance listed

CC(C)CO + CN1CCCC1=O
298.15 K, 101 kPa
Conditions | viscosity [mPa·s]
x2 = 0.0577 | 2.895
x2 = 0.1202 | 2.548
x2 = 0.1587 | 2.399
x2 = 0.2004 | 2.276
x2 = 0.2421 | 2.18
x2 = 0.3117 | 2.053
x2 = 0.368 | 1.982
x2 = 0.4264 | 1.931
x2 = 0.4568 | 1.896
x2 = 0.5217 | 1.854
x2 = 0.5616 | 1.83
x2 = 0.6113 | 1.82
x2 = 0.6662 | 1.796
x2 = 0.711 | 1.776
x2 = 0.7618 | 1.752
x2 = 0.8039 | 1.747
x2 = 0.8557 | 1.717
x2 = 0.8982 | 1.704
x2 = 0.9723 | 1.677

O=C1CCCN1C1CCCCC1 + CN1CCCC1=O
298.15 K, 100 kPa
Conditions | viscosity [mPa·s]
x2 = 0.0108 | 10.21
x2 = 0.0206 | 9.998
x2 = 0.026 | 9.92
x2 = 0.0415 | 9.645
x2 = 0.046 | 9.574
x2 = 0.06 | 9.318
x2 = 0.0748 | 9.054
x2 = 0.0872 | 8.858
x2 = 0.094 | 8.735
x2 = 0.2076 | 7.103
x2 = 0.302 | 5.992
x2 = 0.4096 | 4.942
x2 = 0.5043 | 4.171
x2 = 0.61 | 3.449
x2 = 0.7 | 2.937
x2 = 0.8042 | 2.436
x2 = 0.9004 | 2.038
x2 = 0.9083 | 2.005
x2 = 0.9175 | 1.967
x2 = 0.9328 | 1.93
x2 = 0.9426 | 1.884
x2 = 0.9516 | 1.854
x2 = 0.9616 | 1.837
x2 = 0.9708 | 1.795
x2 = 0.9798 | 1.775

C1CCC2=[NH+]CCCN2CC1.c1nc[n-]n1 + CN(C)C=O
303.15 K, 100 kPa
Conditions | viscosity [mPa·s]
x1 = 0.1001 | 1.42
x1 = 0.2 | 3.07
x1 = 0.2999 | 6.28
x1 = 0.4003 | 11.77
x1 = 0.4989 | 25.38
x1 = 0.6002 | 46.11
x1 = 0.7008 | 98.43
x1 = 0.7993 | 195
x1 = 0.9002 | 470.1

O=C1OCCO1 + CNC(C)=O
313.15 K, 101.33 kPa
Conditions | viscosity [mPa·s]
x1 = 0.0747 | 2.732
x1 = 0.1786 | 2.456
x1 = 0.2841 | 2.246
x1 = 0.3817 | 2.099
x1 = 0.4799 | 1.984
x1 = 0.5724 | 1.903
x1 = 0.6726 | 1.845
x1 = 0.7707 | 1.814
x1 = 0.869 | 1.824
x1 = 0.9684 | 1.893

C1CCC2=[NH+]CCCN2CC1.c1nc[n-]n1 + CO
303.15 K, 100 kPa
Conditions | viscosity [mPa·s]
x1 = 0.1001 | 5.23
x1 = 0.2 | 8.57
x1 = 0.2999 | 24.53
x1 = 0.4003 | 57.03
x1 = 0.4989 | 104.5
x1 = 0.6002 | 205.4
x1 = 0.7008 | 366.4
x1 = 0.7993 | 555.9
x1 = 0.9002 | 882.9

C=CC(=O)OC + CO
viscosity [mPa·s], 101.33 kPa
Conditions | 308.15 K | 318.15 K
x1 = 0.0546 | 0.464 | 0.419
x1 = 0.157 | 0.443 | 0.412
x1 = 0.2569 | 0.426 | 0.404
x1 = 0.3537 | 0.413 | 0.397
x1 = 0.453 | 0.403 | 0.388
x1 = 0.501 | 0.399 | 0.384
x1 = 0.5588 | 0.394 | 0.379
x1 = 0.655 | 0.39 | 0.369
x1 = 0.7566 | 0.387 | 0.359
x1 = 0.8561 | 0.387 | 0.349
x1 = 0.9556 | 0.389 | 0.338

CCCCCC + CO
298.15 K, 101.33 kPa
Conditions | viscosity [mPa·s]
x2 = 0.0532 | 0.313
x2 = 0.0601 | 0.313
x2 = 0.138 | 0.317
x2 = 0.154 | 0.319
x2 = 0.2491 | 0.334
x2 = 0.8139 | 0.49
x2 = 0.8529 | 0.502
x2 = 0.8644 | 0.506
x2 = 0.9199 | 0.525
x2 = 0.9494 | 0.539
x2 = 0.9771 | 0.547

CCCCCOC(C)=O + CO
303.15 K, 101.3 kPa
Conditions | viscosity [mPa·s]
x1 = 0.0524 | 0.537
x1 = 0.1018 | 0.561
x1 = 0.1038 | 0.533
x1 = 0.1608 | 0.547
x1 = 0.1934 | 0.608
x1 = 0.3024 | 0.652
x1 = 0.4255 | 0.695
x1 = 0.5168 | 0.719
x1 = 0.5951 | 0.733
x1 = 0.6976 | 0.753
x1 = 0.791 | 0.775
x1 = 0.8949 | 0.794

CCOC(=O)CC + CO
303.15 K, 101.33 kPa
Conditions | viscosity [mPa·s]
x1 = 0.1102 | 0.524
x1 = 0.1551 | 0.525
x1 = 0.2735 | 0.526
x1 = 0.3189 | 0.527
x1 = 0.3721 | 0.528
x1 = 0.4967 | 0.527
x1 = 0.5395 | 0.524
x1 = 0.613 | 0.521
x1 = 0.6625 | 0.518
x1 = 0.7231 | 0.514
x1 = 0.8087 | 0.508
x1 = 0.9141 | 0.501

O=C1CCCN1C1CCCCC1 + CO
298.15 K, 100 kPa
Conditions | viscosity [mPa·s]
x1 = 0.0094 | 0.589
x1 = 0.0192 | 0.625
x1 = 0.0288 | 0.657
x1 = 0.0387 | 0.69
x1 = 0.0495 | 0.727
x1 = 0.053 | 0.743
x1 = 0.067 | 0.804
x1 = 0.0764 | 0.832
x1 = 0.0858 | 0.866
x1 = 0.0883 | 0.874
x1 = 0.094 | 0.91
x1 = 0.191 | 1.366
x1 = 0.2811 | 1.92
x1 = 0.3806 | 2.649
x1 = 0.48 | 3.553
x1 = 0.5758 | 4.526
x1 = 0.6836 | 5.807
x1 = 0.7845 | 7.171
x1 = 0.8973 | 8.652
x1 = 0.9035 | 8.749
x1 = 0.9182 | 8.971
x1 = 0.9294 | 9.118
x1 = 0.9448 | 9.356
x1 = 0.9517 | 9.496
x1 = 0.965 | 9.7
x1 = 0.9749 | 9.843
x2 = 0.0157 | 10

O=C1OCCO1 + COC(=O)OC
viscosity [mPa·s], 101.3 kPa
Conditions | x2 = 0.0802 | x2 = 0.166 | x2 = 0.2441 | x2 = 0.3467 | x2 = 0.4421 | x2 = 0.5442 | x2 = 0.6512 | x2 = 0.761 | x2 = 0.8513
298.15 K | 2.043 | 1.83 | 1.656 | 1.452 | 1.285 | 1.127 | 0.983 | 0.854 | 0.761
313.15 K | 1.688 | 1.506 | 1.357 | 1.184 | 1.042 | 0.91 | 0.789 | 0.682 | 0.604

CC(C)CO + COC(C)(C)C
298.15 K, 101 kPa
Conditions | viscosity [mPa·s]
x2 = 0.1007 | 2.39
x2 = 0.2009 | 1.72
x2 = 0.2996 | 1.27
x2 = 0.3951 | 0.987
x2 = 0.502 | 0.776
x2 = 0.6038 | 0.637
x2 = 0.7002 | 0.536
x2 = 0.8022 | 0.449
x2 = 0.9008 | 0.385

CC1=CCC2CC1C2(C)C (stereo unspecified) + COC(C)(C)C
298.15 K, 101.33 kPa
Conditions | viscosity [mPa·s]
x2 = 0.0598 | 1.196
x2 = 0.128 | 1.091
x2 = 0.2151 | 0.9713
x2 = 0.357 | 0.8048
x2 = 0.4839 | 0.6762
x2 = 0.5691 | 0.603
x2 = 0.6514 | 0.5379
x2 = 0.7236 | 0.4866
x2 = 0.8254 | 0.4221
x2 = 0.9034 | 0.379
x2 = 0.9583 | 0.3576

CCCCCOC(C)=O + COc1ccccc1
Conditions | viscosity [mPa·s]
298.15 K, 101 kPa, x2 = 0.5 | 0.8265

ClCC(Cl)Cl + COc1ccccc1N
viscosity [mPa·s], 100 kPa
Conditions | x2 = 0.0884 | x2 = 0.1905 | x2 = 0.2923 | x2 = 0.4076 | x2 = 0.5076 | x2 = 0.5945 | x2 = 0.7016 | x2 = 0.8104 | x2 = 0.9023
303.15 K | 1.376 | 1.786 | 2.192 | 2.647 | 3.038 | 3.376 | 3.789 | 4.204 | 4.554
308.15 K | 1.291 | 1.676 | 2.055 | 2.478 | 2.841 | 3.154 | 3.535 | 3.918 | 4.236
313.15 K | 1.204 | 1.566 | 1.916 | 2.307 | 2.641 | 2.929 | 3.279 | 3.629 | 3.918

C1CCC2=[NH+]CCCN2CC1.c1nc[n-]n1 + CS(C)=O
303.15 K, 100 kPa
Conditions | viscosity [mPa·s]
x1 = 0.1001 | 3.86
x1 = 0.2 | 7.19
x1 = 0.2999 | 12.29
x1 = 0.4003 | 22.17
x1 = 0.4989 | 39.73
x1 = 0.6002 | 77.3
x1 = 0.7008 | 152.3
x1 = 0.7993 | 309.9
x1 = 0.9002 | 586.4

CC(C)CO + CS(C)=O
viscosity [mPa·s], 101.3 kPa
Conditions | x2 = 0.0944 | x2 = 0.1917 | x2 = 0.289 | x2 = 0.3884 | x2 = 0.4863 | x2 = 0.5874 | x2 = 0.6887 | x2 = 0.7913 | x2 = 0.8951
298.15 K | 2.785 | 2.366 | 2.056 | 1.934 | 1.879 | 1.853 | 1.858 | 1.891 | 1.918
303.15 K | 2.424 | 2.071 | 1.847 | 1.754 | 1.703 | – | 1.686 | 1.693 | 1.733

O=C1OCCO1 + CS(C)=O
313.15 K, 101.33 kPa
Conditions | viscosity [mPa·s]
x2 = 0.0721 | 1.862
x2 = 0.1744 | 1.786
x2 = 0.2849 | 1.709
x2 = 0.3698 | 1.656
x2 = 0.469 | 1.611
x2 = 0.5668 | 1.571
x2 = 0.6744 | 1.538
x2 = 0.7969 | 1.515
x2 = 0.8782 | 1.51
x2 = 0.9732 | 1.511

Cc1ccccc1O + C[N+](C)(C)CCO.[Cl-]
298.15 K, 101.33 kPa
Conditions | viscosity
x1 = 0.7 | 137.1 mPa·s
x1 = 0.8 | 73.25 mPa·s and 56.18 mPa·s and 47.22 mPa·s
x1 = 0.9 | 38.19 mPa·s

O=C(O)C(=O)O + C[N+](C)(C)CCO.[Cl-]
viscosity [mPa·s], x2 = 0.5
Conditions | 293.15 K | 293.2 K | 298.15 K | 303.2 K | 308.15 K | 313.2 K | 318.15 K
100 kPa | 15680 | – | 8953 | – | 3332 | – | 1421
101.3 kPa | – | 7595 | – | 4359 | – | 2174 | –

O=C(O)CO + C[N+](C)(C)CCO.[Cl-]
100 kPa, x2 = 0.5
Conditions | viscosity [mPa·s]
293.15 K | 779.4
298.15 K | 547.9
303.15 K | 394.8
308.15 K | 290.6
313.15 K | 218.6
318.15 K | 167
323.15 K | 130.1

CC(C)CO + Cc1ccc(C)cc1
308.15 K, 101 kPa
Conditions | viscosity [mPa·s]
x1 = 0.0452 | 0.549
x1 = 0.1043 | 0.562
x1 = 0.1908 | 0.595
x1 = 0.3019 | 0.649
x1 = 0.3823 | 0.697
x1 = 0.4859 | 0.775
x1 = 0.6097 | 0.969
x1 = 0.7046 | 1.218
x1 = 0.8071 | 1.487
x1 = 0.8948 | 1.856
x1 = 0.9585 | 2.247
